The values that follow come from ChEMBL document CHEMBL1130174, “Pyrrolidine-3-carboxylic acids as endothelin antagonists. 2. Sulfonamide-based ETA/ETB mixed antagonists” (J Med Chem, 1997).

As a reminder, the AUC is the area under the concentration-time curve, a measure of exposure. As usually defined, the Cmax is the highest concentration seen after dosing. For orientation: half-life means the time needed for the level to fall by half in the phase considered. The IC50 is the concentration needed to halve the response being measured. For orientation: bioavailability means the share of a dose that reaches the circulation, judged against a reference dose that is usually intravenous.

One data set relates to Rattus norvegicus. The data set is described as follows: (§1) Total drug exposure is determined after oral dosing in rats. It counts as ADME, organism-based. The arrangement: concentration or dose not given beside the values. Conditions: in vivo.
The nature of data set [1]: Maximum drug concentration is determined after oral dosing in rats. It is filed as ADME, organism-based. The arrangement: route oral. The conditions noted are these: rat, in vivo.
A short description of data set [2]: Half-life is obtained after oral dosing of rats. Conditions: rat, in vivo. It counts as ADME, organism-based.
The target in data set [3] is T1, Endothelin receptor type B (Sus scrofa, UniProt P35463).
T1 sequence (P35463 whole entry): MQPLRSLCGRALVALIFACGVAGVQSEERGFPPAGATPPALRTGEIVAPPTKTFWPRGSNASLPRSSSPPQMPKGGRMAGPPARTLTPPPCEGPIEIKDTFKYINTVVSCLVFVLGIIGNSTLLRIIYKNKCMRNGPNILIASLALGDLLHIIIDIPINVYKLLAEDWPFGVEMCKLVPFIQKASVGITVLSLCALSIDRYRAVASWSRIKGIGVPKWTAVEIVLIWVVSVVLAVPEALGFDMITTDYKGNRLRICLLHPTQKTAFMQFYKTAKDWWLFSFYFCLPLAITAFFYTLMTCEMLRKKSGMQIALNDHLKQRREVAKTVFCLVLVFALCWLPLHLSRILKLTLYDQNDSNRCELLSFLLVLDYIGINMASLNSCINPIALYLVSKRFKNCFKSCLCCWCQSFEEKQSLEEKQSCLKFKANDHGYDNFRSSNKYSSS
The data set is described as follows: Ability to displace endothelin ([125I]ET-3) from endothelin B receptor derived from cerebellar tissue of porcine.

Data set [4] addresses T2, Endothelin receptor type B (Homo sapiens, UniProt P24530).
T2 sequence (P24530 whole entry): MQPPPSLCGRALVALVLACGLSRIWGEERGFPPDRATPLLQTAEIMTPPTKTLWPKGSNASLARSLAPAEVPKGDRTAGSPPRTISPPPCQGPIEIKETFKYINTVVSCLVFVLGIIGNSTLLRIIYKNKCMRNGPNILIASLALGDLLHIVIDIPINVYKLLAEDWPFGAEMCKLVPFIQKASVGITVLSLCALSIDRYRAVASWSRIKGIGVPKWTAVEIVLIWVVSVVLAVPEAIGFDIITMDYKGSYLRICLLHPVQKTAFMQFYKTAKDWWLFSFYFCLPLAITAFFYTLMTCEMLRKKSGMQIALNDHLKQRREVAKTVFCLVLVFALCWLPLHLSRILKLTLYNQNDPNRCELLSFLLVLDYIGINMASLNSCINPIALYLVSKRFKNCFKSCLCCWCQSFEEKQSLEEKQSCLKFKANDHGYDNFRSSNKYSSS
The data set is described as follows: Ability to block the ET-1-induced hydrolysis of inositol phosphate in Endothelin B receptor of chinese hamster ovary(CHO) cells. It counts as functional.

Data set [5] concerns the target T3, Endothelin-1 receptor (Homo sapiens, UniProt P25101).
T3 sequence (P25101 whole entry): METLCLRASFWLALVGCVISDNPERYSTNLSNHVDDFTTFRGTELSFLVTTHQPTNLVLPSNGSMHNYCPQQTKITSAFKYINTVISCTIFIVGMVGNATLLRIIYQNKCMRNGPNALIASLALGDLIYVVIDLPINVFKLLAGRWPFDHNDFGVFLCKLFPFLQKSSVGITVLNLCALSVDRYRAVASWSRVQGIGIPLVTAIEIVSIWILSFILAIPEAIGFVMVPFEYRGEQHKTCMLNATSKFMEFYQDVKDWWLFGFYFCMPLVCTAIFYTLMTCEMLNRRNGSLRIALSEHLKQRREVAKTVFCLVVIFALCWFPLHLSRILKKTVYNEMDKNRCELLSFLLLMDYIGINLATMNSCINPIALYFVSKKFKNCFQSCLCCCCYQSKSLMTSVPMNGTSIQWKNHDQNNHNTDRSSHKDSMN
As to the kind of experiment: Binding assay performed using human Endothelin A receptor (hETA) expressed in chinese hamster ovary cells(CHO). It counts as cell-based.

The target of data set [6] is T4, Endothelin-1 receptor (Rattus norvegicus, UniProt P26684).
T4 sequence (P26684 whole entry): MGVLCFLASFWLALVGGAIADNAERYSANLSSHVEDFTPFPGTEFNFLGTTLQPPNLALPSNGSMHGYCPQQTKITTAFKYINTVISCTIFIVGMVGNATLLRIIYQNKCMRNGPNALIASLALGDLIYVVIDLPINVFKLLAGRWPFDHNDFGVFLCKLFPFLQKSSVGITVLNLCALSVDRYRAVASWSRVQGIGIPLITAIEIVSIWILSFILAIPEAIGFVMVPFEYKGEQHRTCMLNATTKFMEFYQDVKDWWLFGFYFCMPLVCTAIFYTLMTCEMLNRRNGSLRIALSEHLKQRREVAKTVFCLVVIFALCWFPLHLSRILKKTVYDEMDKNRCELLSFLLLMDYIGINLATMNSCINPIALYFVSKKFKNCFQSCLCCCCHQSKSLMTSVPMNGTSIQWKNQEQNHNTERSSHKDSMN
As to the kind of experiment: Ability to displace endothelin ([125I]ET1) from endothelin A receptor derived from MMQ cells of rodent. It is filed as cell-based, Rodentia sp.

Data set [7] can be described thus: Oral bioavailability in rat. It counts as ADME, organism-based. Conditions: in vivo.
Data set [8] in a line: Half-life is obtained after intravenous dosing of rats. It counts as ADME, organism-based. The conditions noted are these: rat, in vivo.
Data set [9] has as its target T2, Endothelin receptor type B. The data set is described as follows: Binding assay performed using human Endothelin B receptor (hETB) expressed in chinese hamster ovary cells(CHO). It is filed as cell-based.
Data set [10] in a line: as §1. It counts as ADME, organism-based. The arrangement: concentration or dose not given beside the values. Conditions: rat, in vivo.

`CCCN(CCN1C[C@H](c2ccc3c(c2)OCO3)[C@@H](C(=O)O)[C@@H]1c1ccc(OC)c(F)c1)S(=O)(=O)CCCCl` (stereo in doubt; 15d) displayed an AUC with Rattus norvegicus of 2200 ng·h/mL. In [1], this compound yielded a peak concentration (Cmax) of 400 ng/mL. The results for the half-life in [2] and in data set [8] were 9.6 h and 14 h, respectively. In addition, the IC50 in [3] worked out at 200 pM; in data set [4], 830 pM; on Endothelin-1 receptor [5], 70 pM; on Endothelin-1 receptor [6], 94 pM; in data set [9] it was 140 pM. Also, in [7], the bioavailability amounted to 25%.
`CCCCS(=O)(=O)N(CCC)CCN1C[C@H](c2ccc3c(c2)OCO3)[C@@H](C(=O)O)[C@@H]1c1ccc(OC)c(F)c1` (stereo in doubt; 15a) displayed an exposure (AUC) in [10] of 3700 ng·h/mL. This compound also showed a Cmax in data set [1] of 1100 ng/mL. For the same compound, the half-life in data set [2] was 7.3 h; in data set [8], 6.9 h. Moreover, the IC50 in data set [3] stood at 320 pM; in data set [4], 600 pM; in data set [9], 470 pM. Also, in data set [7], the bioavailability was 31%.
